According to ChEMBL document CHEMBL1152560, “Substituted 2-arylbenzothiazoles as kinase inhibitors: hit-to-lead optimization” (Bioorg Med Chem, 2009):

Experiments:
[1] = biological target: Ephrin type-A receptor 5 (Homo sapiens) (UniProt P54756); test: Residual activity of EPHA5 at 10 uM by microplate scintillation counting
[2] = biological target: Serine/threonine-protein kinase pim-1 (Homo sapiens) (UniProt P11309); test: Residual activity of PIM1 at 0.1 uM by microplate scintillation counting
[3] = biological target: Dual specificity protein kinase CLK1 (Homo sapiens) (UniProt P49759); test: Residual activity of CLK1 at 0.1 uM by microplate scintillation counting
[4] = biological target: Ribosomal protein S6 kinase alpha-5 (Homo sapiens) (UniProt O75582); test: Residual activity of RPS6KA5 at 1 uM by microplate scintillation counting
[5] = biological target: T1, Ephrin type-A receptor 8 (Homo sapiens) (UniProt P29322); test: Residual activity of EPHA8 at 1 uM by microplate scintillation counting
T1 sequence (whole entry): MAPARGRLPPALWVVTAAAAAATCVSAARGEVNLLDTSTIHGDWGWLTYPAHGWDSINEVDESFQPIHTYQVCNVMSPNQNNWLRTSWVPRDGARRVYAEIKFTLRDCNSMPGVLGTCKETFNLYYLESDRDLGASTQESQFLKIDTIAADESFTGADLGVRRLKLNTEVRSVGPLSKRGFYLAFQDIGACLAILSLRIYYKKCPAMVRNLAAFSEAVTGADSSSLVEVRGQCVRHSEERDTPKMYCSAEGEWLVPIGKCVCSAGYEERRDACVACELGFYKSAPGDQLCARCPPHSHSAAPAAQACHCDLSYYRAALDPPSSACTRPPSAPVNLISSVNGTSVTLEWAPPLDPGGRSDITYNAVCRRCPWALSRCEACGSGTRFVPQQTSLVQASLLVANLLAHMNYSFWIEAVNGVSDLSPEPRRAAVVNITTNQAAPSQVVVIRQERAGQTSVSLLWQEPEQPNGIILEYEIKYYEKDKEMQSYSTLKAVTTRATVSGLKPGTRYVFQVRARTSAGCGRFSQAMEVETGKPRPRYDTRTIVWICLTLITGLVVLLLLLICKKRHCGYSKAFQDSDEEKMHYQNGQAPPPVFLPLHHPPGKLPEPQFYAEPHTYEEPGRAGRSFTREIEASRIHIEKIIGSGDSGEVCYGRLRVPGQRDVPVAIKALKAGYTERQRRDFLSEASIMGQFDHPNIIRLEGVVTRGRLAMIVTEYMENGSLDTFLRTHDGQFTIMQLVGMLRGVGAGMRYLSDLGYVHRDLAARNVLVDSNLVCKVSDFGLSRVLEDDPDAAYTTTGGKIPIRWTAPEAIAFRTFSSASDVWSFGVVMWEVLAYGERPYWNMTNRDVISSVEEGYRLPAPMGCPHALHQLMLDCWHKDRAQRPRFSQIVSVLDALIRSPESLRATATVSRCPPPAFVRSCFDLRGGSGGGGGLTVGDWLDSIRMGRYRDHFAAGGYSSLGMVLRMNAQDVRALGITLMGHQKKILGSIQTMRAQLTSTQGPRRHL

[6] = biological target: Calcium/calmodulin-dependent protein kinase kinase 2 (Homo sapiens) (UniProt Q96RR4); test: Residual activity of CAMKK2 at 0.1 uM by microplate scintillation counting
[7] = biological target: T2, Serine/threonine-protein kinase D3 (Homo sapiens) (UniProt O94806); test: Residual activity of PKCnu at 0.1 uM by microplate scintillation counting
T2 sequence (whole entry): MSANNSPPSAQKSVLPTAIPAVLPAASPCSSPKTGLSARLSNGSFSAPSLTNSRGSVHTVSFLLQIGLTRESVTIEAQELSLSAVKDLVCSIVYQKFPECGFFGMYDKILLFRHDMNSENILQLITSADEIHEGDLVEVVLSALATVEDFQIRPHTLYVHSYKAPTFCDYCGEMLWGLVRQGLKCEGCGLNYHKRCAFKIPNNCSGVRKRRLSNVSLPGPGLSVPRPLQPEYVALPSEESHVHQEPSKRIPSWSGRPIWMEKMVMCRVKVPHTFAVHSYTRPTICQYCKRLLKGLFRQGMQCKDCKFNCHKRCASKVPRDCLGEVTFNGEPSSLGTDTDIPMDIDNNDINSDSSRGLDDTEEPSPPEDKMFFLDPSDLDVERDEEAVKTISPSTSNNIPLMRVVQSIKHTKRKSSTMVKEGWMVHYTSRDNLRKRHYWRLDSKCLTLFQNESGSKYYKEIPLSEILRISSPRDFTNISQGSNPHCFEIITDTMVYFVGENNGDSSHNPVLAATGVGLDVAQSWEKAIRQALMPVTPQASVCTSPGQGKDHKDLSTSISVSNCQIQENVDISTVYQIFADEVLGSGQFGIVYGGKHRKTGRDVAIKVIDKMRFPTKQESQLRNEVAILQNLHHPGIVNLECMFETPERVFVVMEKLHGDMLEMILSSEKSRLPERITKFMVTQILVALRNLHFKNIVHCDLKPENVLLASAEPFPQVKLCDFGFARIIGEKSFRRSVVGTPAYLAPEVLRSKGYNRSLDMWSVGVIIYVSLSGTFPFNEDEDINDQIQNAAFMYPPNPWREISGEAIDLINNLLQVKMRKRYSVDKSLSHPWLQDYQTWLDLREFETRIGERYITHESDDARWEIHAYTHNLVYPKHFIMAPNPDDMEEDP

Chain of Ephrin type-A receptor 5 (Homo sapiens) (P54756 whole entry): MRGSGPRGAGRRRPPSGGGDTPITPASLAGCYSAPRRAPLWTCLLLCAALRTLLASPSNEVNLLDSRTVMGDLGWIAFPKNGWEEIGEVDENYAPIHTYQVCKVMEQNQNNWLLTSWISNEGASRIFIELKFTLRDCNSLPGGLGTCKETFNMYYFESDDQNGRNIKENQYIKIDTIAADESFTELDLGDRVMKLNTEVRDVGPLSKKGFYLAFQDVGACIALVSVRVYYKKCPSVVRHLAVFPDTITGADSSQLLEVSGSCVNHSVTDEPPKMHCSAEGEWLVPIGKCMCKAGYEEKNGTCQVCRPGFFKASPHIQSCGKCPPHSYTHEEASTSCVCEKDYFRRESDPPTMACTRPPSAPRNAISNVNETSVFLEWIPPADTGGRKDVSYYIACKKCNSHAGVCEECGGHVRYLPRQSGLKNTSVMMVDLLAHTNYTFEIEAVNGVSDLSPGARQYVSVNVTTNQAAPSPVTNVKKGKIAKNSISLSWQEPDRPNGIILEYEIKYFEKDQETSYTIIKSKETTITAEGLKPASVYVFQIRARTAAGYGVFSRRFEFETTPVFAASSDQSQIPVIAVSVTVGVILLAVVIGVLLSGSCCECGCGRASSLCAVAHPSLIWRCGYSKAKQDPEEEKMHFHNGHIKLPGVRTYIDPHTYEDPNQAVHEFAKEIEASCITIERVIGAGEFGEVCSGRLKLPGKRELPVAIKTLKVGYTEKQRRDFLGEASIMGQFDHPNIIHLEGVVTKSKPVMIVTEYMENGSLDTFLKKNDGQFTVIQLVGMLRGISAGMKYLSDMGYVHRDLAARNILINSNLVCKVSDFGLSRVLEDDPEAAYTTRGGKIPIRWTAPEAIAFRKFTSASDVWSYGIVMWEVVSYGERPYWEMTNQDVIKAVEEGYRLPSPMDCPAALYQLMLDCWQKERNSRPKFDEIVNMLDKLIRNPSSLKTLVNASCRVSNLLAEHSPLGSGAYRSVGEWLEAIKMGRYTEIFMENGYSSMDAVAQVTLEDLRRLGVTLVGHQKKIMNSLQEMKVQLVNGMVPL
Chain of Ribosomal protein S6 kinase alpha-5 (Homo sapiens) (O75582 whole entry, looked up): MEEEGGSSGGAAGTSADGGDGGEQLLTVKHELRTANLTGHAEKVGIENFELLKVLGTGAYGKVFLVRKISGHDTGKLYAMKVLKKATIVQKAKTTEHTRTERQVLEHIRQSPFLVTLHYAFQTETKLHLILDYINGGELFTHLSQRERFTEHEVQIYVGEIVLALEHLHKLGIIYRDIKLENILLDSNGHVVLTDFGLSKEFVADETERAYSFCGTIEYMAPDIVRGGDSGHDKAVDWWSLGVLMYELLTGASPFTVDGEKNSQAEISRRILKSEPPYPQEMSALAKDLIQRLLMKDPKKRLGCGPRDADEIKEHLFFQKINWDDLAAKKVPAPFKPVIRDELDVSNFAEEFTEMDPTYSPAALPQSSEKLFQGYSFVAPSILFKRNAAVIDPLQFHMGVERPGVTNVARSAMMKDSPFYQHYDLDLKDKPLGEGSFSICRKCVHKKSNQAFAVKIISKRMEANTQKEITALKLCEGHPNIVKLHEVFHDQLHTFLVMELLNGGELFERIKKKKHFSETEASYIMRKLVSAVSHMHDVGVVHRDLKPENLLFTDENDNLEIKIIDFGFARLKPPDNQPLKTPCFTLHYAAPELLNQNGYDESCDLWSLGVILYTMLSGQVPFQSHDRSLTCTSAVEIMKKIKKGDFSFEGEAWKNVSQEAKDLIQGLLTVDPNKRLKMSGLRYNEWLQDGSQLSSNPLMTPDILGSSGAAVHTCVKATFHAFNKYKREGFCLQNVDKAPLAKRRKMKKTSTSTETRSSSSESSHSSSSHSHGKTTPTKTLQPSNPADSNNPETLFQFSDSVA
Chain of Calcium/calmodulin-dependent protein kinase kinase 2 (Homo sapiens) (Q96RR4 2-588 limits assumed): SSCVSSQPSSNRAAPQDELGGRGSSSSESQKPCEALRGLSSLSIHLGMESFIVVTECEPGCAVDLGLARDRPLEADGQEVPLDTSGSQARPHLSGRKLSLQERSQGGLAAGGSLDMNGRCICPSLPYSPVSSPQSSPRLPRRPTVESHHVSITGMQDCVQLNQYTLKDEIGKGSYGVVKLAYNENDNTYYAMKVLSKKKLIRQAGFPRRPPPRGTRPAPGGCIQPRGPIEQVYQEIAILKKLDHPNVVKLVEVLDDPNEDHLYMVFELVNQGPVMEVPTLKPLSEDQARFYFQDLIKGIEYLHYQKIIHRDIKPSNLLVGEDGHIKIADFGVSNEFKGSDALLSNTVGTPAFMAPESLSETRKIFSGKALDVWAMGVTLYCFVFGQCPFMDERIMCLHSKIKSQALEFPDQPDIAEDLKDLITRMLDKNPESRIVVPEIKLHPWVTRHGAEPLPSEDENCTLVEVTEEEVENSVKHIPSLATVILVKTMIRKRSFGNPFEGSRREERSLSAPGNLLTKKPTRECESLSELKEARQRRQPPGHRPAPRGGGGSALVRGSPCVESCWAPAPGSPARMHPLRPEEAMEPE
Chain of Dual specificity protein kinase CLK1 (Homo sapiens) (P49759 whole entry, looked up): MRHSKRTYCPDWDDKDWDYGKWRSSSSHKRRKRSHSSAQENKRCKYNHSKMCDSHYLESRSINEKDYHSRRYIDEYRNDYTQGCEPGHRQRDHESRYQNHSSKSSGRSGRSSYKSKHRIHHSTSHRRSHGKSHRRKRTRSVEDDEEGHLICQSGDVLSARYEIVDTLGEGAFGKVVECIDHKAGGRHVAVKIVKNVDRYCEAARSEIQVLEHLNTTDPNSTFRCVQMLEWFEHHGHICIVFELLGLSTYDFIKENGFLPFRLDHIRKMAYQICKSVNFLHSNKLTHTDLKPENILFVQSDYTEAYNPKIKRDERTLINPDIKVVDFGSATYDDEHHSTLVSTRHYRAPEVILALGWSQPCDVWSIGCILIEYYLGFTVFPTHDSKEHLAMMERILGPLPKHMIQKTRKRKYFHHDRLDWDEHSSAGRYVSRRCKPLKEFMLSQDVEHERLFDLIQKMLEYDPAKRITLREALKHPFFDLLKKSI
Chain of Serine/threonine-protein kinase pim-1 (Homo sapiens) (P11309 whole entry, looked up): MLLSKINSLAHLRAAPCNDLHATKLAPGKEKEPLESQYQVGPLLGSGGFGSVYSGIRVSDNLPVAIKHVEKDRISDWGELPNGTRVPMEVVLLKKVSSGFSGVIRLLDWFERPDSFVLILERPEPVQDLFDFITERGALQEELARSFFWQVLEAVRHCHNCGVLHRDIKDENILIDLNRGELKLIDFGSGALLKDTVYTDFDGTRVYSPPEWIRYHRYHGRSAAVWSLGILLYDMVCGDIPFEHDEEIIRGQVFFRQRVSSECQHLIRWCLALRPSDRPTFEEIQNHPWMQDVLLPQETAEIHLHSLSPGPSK

residual activity [1]	residual activity [2]	residual activity [3]	residual activity [4]	residual activity [5]	residual activity [6]	residual activity [7]	SMILES
236%	95%	114%	87%	147%	91%	93%	COc1cc2c(Oc3ccc(-c4nc5ccccc5s4)cc3)ncnc2cc1OCCCN1CCCC1
162%	76%	96%	71%	149%	84%	102%	COc1cc2c(Oc3ccc(-c4nc5ccccc5s4)cc3F)ncnc2cc1OCCCN1CCN(C)CC1
302%	100%	94%	81%	123%	86%	86%	COc1cc2c(Oc3ccc(-c4nc5ccccc5s4)cc3)ncnc2cc1OCCCN1CCN(C)CC1
